Legend:
[1] = Surface tension of aqueous solution, pendant drop method; format: physicochemical; conditions: 0.14 weight % solution in water; pure water 71.57 mN/m
Experimental: The measurement was made on a Kruss DSA100S Tensiometer by the pendant drop method. […] This concentration was chosen so the results could be compared to the literature value for known surfactant sodium dodecyl sulfate (SDS) at 5 mM, which is approximately 0.15 weight %.

[2] = POV of model perfume treated with AKG-mono(DiMeC12A); conditions: 1.0% w/v; within 26 hours after the addition
Experimental: A model perfume was made using 90/10 v/v ethanol/water as a solvent, and a mixture of orange, grapefruit, and bergamot oils as the perfume oil. The mixed citrus oil was loaded into the solvent at approximately 19.4% v/v (6 mL oil into 25 mL solvent). Approximately 200 mg (1.0% w/v) of the AKG-monoMeC12A salt was dissolved in 20 mL of the mixed citrus perfume, and POV measurements were taken as a function of time after the addition. An untreated perfume sample was handled similarly to the treated perfume and also tested, because the POV can rise rapidly with handling of the sample (opening the bottle, agitation, etc.).

[3] = 0.3358 g in 15 mL sunflower oil; 23 days; indistinguishable from BLANK

Row | SMILES | surface tension [1] [mN/m] | reduction in the POV [2] | POV of treated oil [3] [mmol/L]
1 | CCCCCCCCCCCCN(C)C.O=C(O)CCC(=O)C(=O)O [AKG-mono(DiMeC12A)] | 32.93 | total and complete reduction | 
2 | CCCCCCCCCCN(C)C.O=C(O)C(=O)c1ccco1 [FAA-DiMeC10A] |  |  | 0.00
